Experimental data from ChEMBL document CHEMBL2150862, “Cyclopropyl-spiro-piperidines Useful as Sodium Channel Blockers: Patent Highlight” (ACS Med Chem Lett, 2012).

Biological target: Sodium channel protein type 9 subunit alpha (Homo sapiens, UniProt Q15858)
Test: Inhibition of Nav1.7 by cell-based FLIPR assay

Sodium channel protein type 9 subunit alpha, sequence (Q15858 whole entry): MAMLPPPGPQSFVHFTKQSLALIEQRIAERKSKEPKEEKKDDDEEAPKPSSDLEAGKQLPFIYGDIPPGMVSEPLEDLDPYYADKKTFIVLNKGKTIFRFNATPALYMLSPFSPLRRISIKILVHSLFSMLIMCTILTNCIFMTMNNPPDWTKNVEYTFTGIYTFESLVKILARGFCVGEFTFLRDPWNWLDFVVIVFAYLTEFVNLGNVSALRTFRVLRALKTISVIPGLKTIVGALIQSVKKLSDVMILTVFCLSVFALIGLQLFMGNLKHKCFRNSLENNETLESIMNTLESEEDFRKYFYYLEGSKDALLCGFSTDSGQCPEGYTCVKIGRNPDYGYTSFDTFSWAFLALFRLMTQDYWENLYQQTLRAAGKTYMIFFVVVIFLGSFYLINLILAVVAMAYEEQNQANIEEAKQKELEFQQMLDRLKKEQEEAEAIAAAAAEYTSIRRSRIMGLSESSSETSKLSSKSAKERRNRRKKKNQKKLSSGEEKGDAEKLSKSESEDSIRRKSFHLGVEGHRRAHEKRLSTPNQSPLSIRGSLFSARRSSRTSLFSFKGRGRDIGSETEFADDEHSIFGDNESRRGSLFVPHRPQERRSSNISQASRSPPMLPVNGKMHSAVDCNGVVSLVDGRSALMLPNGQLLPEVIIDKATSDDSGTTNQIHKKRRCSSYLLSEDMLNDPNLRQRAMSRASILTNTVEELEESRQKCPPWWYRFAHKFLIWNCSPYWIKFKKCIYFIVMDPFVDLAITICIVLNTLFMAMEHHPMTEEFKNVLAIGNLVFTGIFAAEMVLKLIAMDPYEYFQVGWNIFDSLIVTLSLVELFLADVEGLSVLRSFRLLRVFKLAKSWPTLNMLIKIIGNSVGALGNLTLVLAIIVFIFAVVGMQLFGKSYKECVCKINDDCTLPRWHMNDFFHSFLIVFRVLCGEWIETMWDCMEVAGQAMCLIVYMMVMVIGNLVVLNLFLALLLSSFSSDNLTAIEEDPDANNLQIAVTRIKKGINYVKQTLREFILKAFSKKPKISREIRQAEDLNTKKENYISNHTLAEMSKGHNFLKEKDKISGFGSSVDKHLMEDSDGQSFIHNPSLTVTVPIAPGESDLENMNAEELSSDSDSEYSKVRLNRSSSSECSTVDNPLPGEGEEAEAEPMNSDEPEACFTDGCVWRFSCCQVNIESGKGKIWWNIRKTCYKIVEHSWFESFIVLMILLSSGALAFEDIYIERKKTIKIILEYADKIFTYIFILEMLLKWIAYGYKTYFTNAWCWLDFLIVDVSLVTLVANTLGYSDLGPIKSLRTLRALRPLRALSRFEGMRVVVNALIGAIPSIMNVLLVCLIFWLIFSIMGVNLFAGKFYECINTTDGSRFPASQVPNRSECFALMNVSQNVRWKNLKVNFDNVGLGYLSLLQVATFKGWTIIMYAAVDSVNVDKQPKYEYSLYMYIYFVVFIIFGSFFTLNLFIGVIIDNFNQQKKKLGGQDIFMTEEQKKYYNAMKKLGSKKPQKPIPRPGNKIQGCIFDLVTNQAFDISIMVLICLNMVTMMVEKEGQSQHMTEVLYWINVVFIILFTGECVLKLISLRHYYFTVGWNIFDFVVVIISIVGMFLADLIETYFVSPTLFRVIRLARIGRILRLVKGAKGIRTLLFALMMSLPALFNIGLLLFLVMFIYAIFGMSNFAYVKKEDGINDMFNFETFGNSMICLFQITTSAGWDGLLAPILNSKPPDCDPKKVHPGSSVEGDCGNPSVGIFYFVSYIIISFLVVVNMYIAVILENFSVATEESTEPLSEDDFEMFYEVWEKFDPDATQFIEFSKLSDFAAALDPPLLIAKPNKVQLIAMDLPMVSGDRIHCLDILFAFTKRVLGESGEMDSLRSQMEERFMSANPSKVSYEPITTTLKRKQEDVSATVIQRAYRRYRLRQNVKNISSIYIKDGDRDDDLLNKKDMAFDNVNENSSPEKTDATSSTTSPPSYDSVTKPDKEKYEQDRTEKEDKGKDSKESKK

| Compound | IC50 |
| --- | --- |
| O=C(NC1CC12CCN(c1ccccc1)CC2)c1ccc(F)c2ccccc12 (stereo unspecified) | 188 nM |
| c1ccc(CC(NCC2CC23CCN(c2ccccc2)CC3)c2ccccc2)cc1 (stereo unspecified) | 177 nM |
| CN(C)c1ccc(C(=O)NC2CC23CCN(c2cc(F)cc(F)c2)CC3)c2ccccc12 (stereo unspecified) | 151 nM |

More lines, in order of falling IC50, values ahead:

| IC50 | Compound |
| --- | --- |
| 291 nM | c1ccc(CN2CCC3(CC2)CC3CNc2ccccc2N2CCCCC2)cc1 (stereo unspecified) |
| 237 nM | CN(C)c1cccc2c(C(=O)NC3CC34CCN(c3ccccc3)CC4)cccc12 (stereo unspecified) |
| 98.3 nM | CN(C)c1ccc(C(=O)NC2CC23CCN(c2ccccc2)CC3)c2ccccc12 (stereo unspecified) |
